The subject of experiment [1] is human myeloid leukemia cell line SKM-1. The experiment can be described thus: Cell growth inhibitory activity (CellTiter-Glo, 72 hours). In kind it is cell-based. Particulars: SKM-1, 72 hours. As for the experimental part: (§1) A ¾ hydrate of Compound A was used as a test compound.
SKM-1 (available from National Institute of Biomedical Innovation JCRB Cell Bank) was used as a human myeloid leukemia cell line.
90 μL (5000 cells) of the human myeloid leukemia cell line SKM-1 was seeded onto a 96-well plate. 10 μL of a PBS solution of the test compound (0 μmol/L, 1 μmol/L, 3 μmol/L, 10 μmol/L, 30 μmol/L, 100 μmol/L, 300 μmol/L, 1000 μmol/L, 3000 μmol/L, or 10000 μmol/L in terms of Compound A) was added to the plate which was then incubated in 5% CO2 at 37° C. for 72 hours. 100 μL of CellTiter-Glo (manufactured by Promega) was added to each well to prepare a cell lysate.
The relative value of chemiluminescence intensity was calculated by a plate reader.
On the technique in general: In ATP-based viability assays light output follows the ATP content of the culture.

Experiment [2] relates to XMP in blood cells after hemolysis. The experiment can be described thus: XMP in blood cells after hemolysis (Example 5). In kind it is cell-based. As to conditions: Homo sapiens, 37° C., 8 hours, non-treated = 100%; for XMP amount (% of non-treated) at 1 µg/mL: Compound A 1 μg/mL; for XMP amount (% of non-treated) at 3 µg/mL: Compound A 3 μg/mL; for XMP amount (% of non-treated) at 10 µg/mL: Compound A 10 μg/mL; for XMP amount (% of non-treated) at 30 µg/mL: Compound A 30 μg/mL; for XMP amount (% of non-treated) at 100 µg/mL: Compound A 100 μg/mL. As for the experimental part:
A ¾ hydrate of Compound A was used s a test compound.
450 μL of the blood collected from two healthy individuals by heparinized blood collection (Analyte A and Analyte B) was added to each tube, and 50 μL of a PBS solution of the test compound (0 μg/mL, 10 μg/mL, 30 μg/mL, 100 μg/mL, 300 μg/mL, or 1000 μg/mL in terms of Compound A) for each concentration was added to each tube. The reaction mixture was stirred in an incubator at 37° C. for 8 hours.
BD Pharm Lyse (555899, manufactured by Becton, Dickinson and Company, Inc.) was added to the blood sample obtained in (1) (2 mL of BD Pharm Lyse was added relative to 0.2 mL of blood). After stirring with a vortex mixer, the reaction solution was protected from light and allowed to stand at room temperature for 15 min. After centrifugation at 20° C. and 1000×g for 5 min, the supernatant was removed and suspended in 10 mL of PBS. After centrifugation at 4° C. and 1000×g for 5 min, the supernatant was removed, and 1000 μL of methanol was added to each tube, followed by stirring. Thereafter, 500 μL of ultrapure water was added thereto, followed by further stirring. 600 μL of the reaction solution was divided into each of two tubes, and 400 μL of chloroform was added to each tube. The reaction solution was stirred and then centrifuged at 4° C. and 10000×g for 15 min. 400 μL of the aqueous phase was recovered and added to an ultrafiltration tube (UltrafreeMC-PLHCC 250/pk for Metabolome Analysis (manufactured by Human Metabolome Technologies)), followed by centrifugation at 12° C. and 9200×g for 2 hours. The filtrates were combined and then dried under reduced pressure at 40° C. for 2 hours by using a centrifugal evaporator. After drying, the resulting product was stored in a freezer at −80° C.
The samples obtained in (2-1) and (2-2) were returned to room temperature and 40 μL of ultrapure water was added to each sample. The mixture was stirred and centrifuged at 4° C. and 21500×g for 5 min. 35 μL of the supernatant was transferred to a vial. After storage at 4° C., XMP in samples was determined in the LC-MS/MS determination instrument, LC conditions and MS/MS conditions described in Example 3 (3).
(§2) Amounts of XMP (%) were calculated assuming that amounts of XMP in a non-Compound A treated group are defined as 100%.

For another experiment, the system named is XMP in bone marrow cells. Put plainly: XMP in bone marrow cells of mice after oral administration. It counts as in vivo, female mice (BALB/cAJcl). As to conditions: 100 mg/kg oral, non-treated = 100%. As for the experimental part:
as §1
0.5% MC or 0.5% MC of the test compound (100 mg/kg in terms of Compound A) was orally administered to female mice (BALB/cAJcl).
Right and left femurs of animals were collected under anesthesia by isoflurane inhalation at 1, 4, 8 or 24 hours post-dose, followed by cutting bone ends and centrifuging at 4° C. and 3000 rpm for 1 min to recover bone marrow cells. The recovered bone marrow cells were suspended in 1 mL of PBS, and the number of cells was counted. After centrifugation at 4° C. and 1000×g for 5 min, the supernatant was removed, and 1000 μL of methanol was added to each tube, followed by stirring. Thereafter, 500 μL of ultrapure water was added thereto, followed by further stirring. 600 μL of the reaction solution was divided into each of two tubes, and 400 μL of chloroform was added to each tube. The reaction solution was stirred and then centrifuged at 4° C. and 10000×g for 15 min. 400 μL of the aqueous phase was recovered and added to an ultrafiltration tube, followed by centrifugation at 12° C. and 9200×g for 2 hours. The filtrates were combined and then dried under reduced pressure at 40° C. for 2 hours by using a centrifugal evaporator. After drying, the resulting product was stored in a freezer at −80° C.
The samples obtained in (2-1) and (2-2) were returned to room temperature, and 40 μL of ultrapure water was added to the hemolysis sample and 150 μL of ultrapure water was added to the bone marrow sample. The mixture was stirred and then centrifuged at 4° C. and 21500×g for 5 min. For the hemolysis sample, 35 μL of the supernatant was transferred to a vial. For the bone marrow sample, 140 μL of the supernatant was transferred to a vial. After storage at 4° C., XMP in samples was determined in the LC-MS/MS determination instrument, LC conditions and MS/MS conditions described in Example 3 (3).
as §2

The mark [3] stands for this setting: read-out: Amount of XMP (%) Analyte A Hemolysis.
Setting [4] is: read-out: Amount of XMP (%) Analyte B Hemolysis.

The structures appear in SMILES notation. pIC50: −log10 of the molar value. Where two headings read alike, the source gives them in different places.

`NC(=O)c1nc[nH]c1O` [Compound A, 5-Hydroxy-1H-imidazole-4-carboxamide] gave a pIC50 in experiment [1] of 4.67. In experiment [1] (in terms of Compound A), this compound had an IC50 of 2.73 µg/mL. For the same compound, in experiment [2] (setting [3]), the XMP amount (% of non-treated) at 1 µg/mL came to 60%, the XMP amount (% of non-treated) at 3 µg/mL was found to be 45%, the XMP amount (% of non-treated) at 10 µg/mL is 37% and the XMP amount (% of non-treated) at 30 µg/mL was found to be 27%. Also, in experiment [2] (setting [3]), the XMP amount (% of non-treated) at 100 µg/mL amounted to 16%. In experiment [2] (setting [4]), the XMP amount (% of non-treated) at 1 µg/mL is 51%, the XMP amount (% of non-treated) at 3 µg/mL came to 37%, the XMP amount (% of non-treated) at 10 µg/mL stood at 25% and the XMP amount (% of non-treated) at 30 µg/mL stood at 18%. Besides, in experiment [2] (setting [4]), the XMP amount (% of non-treated) at 100 µg/mL is 10%. The “Amount of XMP (%) Bone marrow cell” value in the experiment on XMP in bone marrow cells (1 hr post-dose) came out at 8.7%. Moreover, in the experiment with XMP in bone marrow cells (4 hr post-dose), the “Amount of XMP (%) Bone marrow cell” value turned out to be 16.5%. Moreover, the “Amount of XMP (%) Bone marrow cell” value with XMP in bone marrow cells (8 hr post-dose) came out at 25.9%. Further, the “Amount of XMP (%) Bone marrow cell” value in the experiment on XMP in bone marrow cells (24 hr post-dose) was 82.7%.

Usually pIC50 stands for the IC50 on a negative log10 scale, so that one unit is a factor of ten. Lower therefore signals a high IC50. For orientation: IC50 means the point on the concentration scale where inhibition reaches its midpoint.

These data come from patent US20160320368A1, “METHOD AND APPARATUS FOR PREDICTING EFFECTIVE DOSE OR SENSITIVITY OF 5-HYDROXY-1H-IMIDAZOLE-4-CARBOXAMIDE, METHOD FOR DETERMINING AMOUNT OF XANTHOSINE MONOPHOSPHATE, AND TREATMENT AGENT AND METHOD FOR TREATING MYELODYSPLASTIC SYNDROME” (FUJIFILM Corporation, priority 2014, published 2016).
